Legend:
calmodulin (CaM) = assay: Swelling response of CaM-integrated hydrogel / hydrogel microdomes to free ligand
From the text: The hydrogel can swell when chlorpromazine (CPZ) is integrated into the hydrogel polymer network because immobilized phenothiazine is displaced from CaM by free CPZ. Phenothiazine is released from its CaM binding site and replaced by CPZ creating a relaxation of polymer chains. This relaxation allows more water to permeate the porous hydrogel polymer network, thus hydrogel swelling occurs.
In the first stage, CaM is bound to a phenothiazine. In the presence of CPZ, competitive binding occurs, and the non-covalent crosslinking is released creating expansion of the hydrogel network.
While the collective array can be used to visually screen for an analyte, the individually addressable microdome array is analyzed using a laser screening system to detect the change in height of the microdomes. The initial size of the hydrogel microdome, including the height of the microdome, is determined using the stylus profilometer. […] The microdome array 22 on substrate 24 is placed on a stage micrometer 26. A light generating means 14 such as a laser diode generates a light beam 16 that is reflected off the top of microdome 22 to produce a diffracted light 18 that is captured by photodiode 20. By positioning the microdome 22 on the stage micrometer 26, the initial height of the microdome can be determined by the amount of light deflected off the top of the microdome 22 by counting the number of photons detected by the photodiode 20.
After the initial reading, the microdome is not moved. A test solution is applied to the microdome for about 1 to 3½ minutes and then is removed and if the microdome swells, the amount of photons emitted off the microdome will change due to the swelling. The swell time for the hydrogel microdome is about 3½ minutes after the solution is applied to the microdome. […] After the test, the stage micrometer can be adjusted to bring another near by microdome in the array into the sensing area.

calmodulin (CaM109) = assay: Fluorescence assay of conformation change in fluorophore (MDCC)-labeled CaM109 monomer and dimer; assay type: binding; settings: added to labeled calmodulin molecules that had already bound calcium
From the text: In order to measure the extent of conformation change in CaM molecules in response to calcium and phenothiazine binding, a system has been developed in which a fluorophore is conjugated to a cysteine residue that had been inserted at amino acid 109 of wild type CaM using methods well known to those skilled in the art. This CaM mutant was called CaM109. The fluorescence of the fluorophore increases as the conformation of CaM changes in the presence of calcium.
Since wild-type CaM contains no cysteines, the addition of a cysteine to CaM at a desired position within the protein, allows for labeling of the protein at this position. Such labeling was done using a thiol-reactive fluorescent label called N-[2-(1-maleimidyl)ethyl]-7-(diethylamino)coumarin-3-carboxamide, or MDCC.
The fluorescence response of MDCC-labeled, CaM109 molecules was recorded in the absence and presence of 3×10^6 M Ca^++. The Ca^++ concentration was controlled by EGTA at pH 8.0, and the free Ca^++ concentrations were calculated using the software program Chelator (Haugland, 1996, Handbook of Fluorescent Probes and Research Chemicals, 6th edition, Molecular Probes, Eugene, Oreg., p. 52).

SMILES	binding affinity for CaM (relative) (calmodulin (CaM); displacement of immobilized phenothiazine from the CaM binding site in the hydrogel)	swelling of protein-hydrogel microdomes (calmodulin (CaM); microdomes on polymethyl methacrylate or silanized glass slides)	swelling of CaM hydrogel with immobilized phenyl ligand (4-phenyl-1-butene) (calmodulin (CaM); phenothiazine derivative replaced with 4-phenyl-1-butene, swelling irreversible, FIG. 17)	fluorescence quenched (calmodulin (CaM109))
CN(C)CCCN1c2ccccc2Sc2ccc(Cl)cc21 [chlorpromazine]	higher binding affinity for CaM than phenothiazine	swelling occurred	the hydrogel swells	
c1ccc2c(c1)Nc1ccccc1S2 [phenothiazine]				100%
